Assay results taken from patent publication US20220040255A1, “CHEMOTHERAPEUTIC REMODELING OF THE GUT MICROBIOME” (THE SCRIPPS RESEARCH INSTITUTE, priority 2018, published 2022).
Where a SMILES comes first, the peptide text is derived from it. [ ]: non-standard residue; d: D form.

Key:
Assay type in all cases: in vivo, LDLr−/− mice
[1] = test system: cytokines/chemokines in liver tissue; experiment: cytokines/chemokines in liver tissue by Luminex assay
Text: Interleukin-1β (IL-1β) is a proinflammatory cytokine central to the inflammatory response […] the interlukin-6 (IL-6) signaling pathway. […] In addition to IL-1β, a pathogenic role of IL-la in vascular inflammation and atherosclerosis has been described.

[2] = test system: total bile acid; experiment: bulk (total) bile acid quantification; conditions: 2-wk treatment
Protocol: Bulk bile acid quantification. Total bile acids were measured enzymatically using a total bile acid assay kit (Cell Biolabs) following manufacturer's instruction. Feces were obtained between 0900-1100 am from non-fasted animals after a 2-wk treatment period. The extraction of bile acid from feces was performed as described in Yu et al., J. Biol. Chem. 275, 15482-15489, 2000. In brief, the feces from individual mice were collected, weighed, and agitated in 75% ethanol in an ultrasonic bath at 50° C. for 2 h. After centrifugation at 3,500 g for 10 min, the supernatant was transferred to a new tube and diluted with 25% PBS. The total bile acid level was then determined enzymatically using the kit. For plasma samples, the plasma was diluted 1:10 with 25% PBS prior to enzymatic bile acid measurement using the kit.

[3] = test system: gut microbiota metabolites; experiment: fecal SCFA and amino acid measurements (LC-MS)
Protocol: SCFA and amino acid measurements. Fecal SCFA and amino acid content was measured by liquid chromatography-mass spectrometry (LC-MS). The fecal samples were weighed and placed into 2 ml Omni tubes. Ethanol was added to bring the volume to 350 μl. Next, 4 μl of 500 μM d-FA-mix and 20 μl of 1 mM 3CHPA were added to each sample as internal standard. The samples were homogenized using an Omni bead beater at the speed of 4.5 m/s for 30 sec, and then centrifuged at 13,000 rpm for 15 min. 90 μl of the supernatants was transferred into glass HPLC vials. 30 μl of freshly prepared 4×3NPH solution (160 mM 3-nitrophenylhydrazine, 150 mM EDC, pyridine 12% vol, 50% acetonitrile) was added to each sample and the reactions were held at room temperature for 30 min. 2 μl of the sample was injected into the LC-MS (Agilent 1290 HPLC, 6550 qTOF). The concentration of each SCFA and amino acid was calculated based on a standard curve and normalized by the internal control and the feces weight.

[4] = test system: gut microbiota transcriptome; experiment: bacterial RNA-seq of feces (microbiota transcriptome)
Protocol: Bacterial RNA-seq sample preparation and sequencing. Total bacterial RNA from feces samples was isolated with ZR Soil/Fecal RNA MicroPrep (Zymo research) following the manufacturer's instructions. Briefly, the sample was suspended in RNA lysis buffer and lysed by the mixer (Retsch). The supernatant was transferred to a RNA-binding column and washed several times with RNA wash buffer. In-column DNaseI digestion at 25° C. for 15 min was performed to eliminate DNA contamination in the sample. The presence of genomic DNA contamination was assessed by PCR with universal 16S rRNA gene primers. Before RNA-seq library preparation, rRNA was removed from 2 μg of total bacterial RNA with Ribo-Zero Bacteria kit (Illumina). 100 ng of purified RNA was used for RNA-seq library preparation as described previously^56. The cDNA was synthesized by reverse transcription with SuperScript III (Life technologies) and second-strand synthesis (New England Biolabs). The sequencing library was generated from purified cDNA with Nextera XT DNA library preparation kit (Illumina) and amplified by PCR. Cycling conditions were 72° C. for 3 min, 95° C. for 30 s, followed by 16 cycles of 95° C. for 10 s, 55° C. for 30 s, and 72° C. for 30 s. A condition of 72° C. for 5 min was used for the final elongation step. Libraries with different indexes were pooled and single-end sequencing (75 bp) was performed on an Illumina NextSeq at the Scripps Research Institute next generation sequencing core.
Functional analysis of bacterial RNA-seq data. We used BWA (version 0.7.12) read alignment program and a custom-built bacterial reference database, which contains 4,700 bacterial genomes from NCBI NR sequence database, to map RNA-seq reads. The reads aligned to individual bacterial genes were counted using HTSeq count (version 0.6.0) and the counts were further normalized based on size factors estimated using the median of the ratios of observed counts method as described previously (Anders et al., Genome Biol. 11, R106, 2010). The proteins predicted by RNA-seq read alignment were annotated with DIAMOND (version 0.8.26) using the NCBI nonredundant (NCBI-nr) database and the default setting (BLASTX e value <10^−3, bit score >50). For query genes with multiple matches, the annotated reference gene with the lowest e value was chosen. The functional analysis was performed by MEGAN (version 5.11.3) and KEGG analyzer was used to determine read counts in different metabolic pathways from each group. The aggregate expression level changes for sequences within a given function were normalized before the comparison between each group.

[5] = liver tissue, WD-fed LDLr−/− mice, 4 weeks of treatment

With `CC(C)C[C@@H]1NC(=O)[C@@H](Cc2c[nH]c3ccccc23)NC(=O)[C@H](CCCNC(=N)N)NC(=O)[C@@H](CCC(=O)O)NC(=O)[C@H](CCC(N)=O)NC(=O)[C@@H](CCC(=O)O)NC(=O)[C@H](CCCNC(=N)N)NC(=O)[C@@H](Cc2c[nH]c3ccccc23)NC1=O` [c[wLwReQeR]] (cyclo([dW]L[dW]R[dE]Q[dE]R)) the “several cytokine and chemokine levels, including IL-1β, IL-1α, IL-6, and TNF-α” value ([1]; liver tissue from WD animals, treated vs vehicle) was “significant reductions”, the “CCL2 (MCP-1) level” value [1, 5] was 470 ± 150 pg/g tissue and the “CCL3 (MIP-1a) level” value [1, 5] was 200 ± 130 pg/g tissue. The “CCL4 (MIP-1b) level” value [1, 5] was 3000 ± 1800 pg/g tissue, the “CXCL10 (IP-10) level” value [1, 5] was 1200 ± 380 pg/g tissue and the Eotaxin level [1, 5] was 1200 ± 390 pg/g tissue. It also gave a G-CSF level [1, 5] of 380 ± 150 pg/g tissue, a GM-CSF level [1, 5] of 86 ± 37 pg/g tissue and an IFNg level [1, 5] of 37 ± 16 pg/g tissue. For the same molecule, the IL1a level [1, 5] was 1100 ± 190 pg/g tissue, the IL1b level [1, 5] was 430 ± 100 pg/g tissue and the IL2 level [1, 5] was 80 ± 24 pg/g tissue. The IL3 level [1, 5] was 31 ± 15 pg/g tissue, the IL4 level [1, 5] was 13 ± 8.4 pg/g tissue and the IL6 level [1, 5] was 260 ± 55 pg/g tissue. For the same molecule, the IL7 level [1, 5] was 230 ± 110 pg/g tissue, the IL9 level [1, 5] was 670 ± 160 pg/g tissue and the IL10 level [1, 5] was 160 ± 58 pg/g tissue. It also gave an IL13 level [1, 5] of 7.3 ± 5.9 pg/g tissue, an IL-12p40 level [1, 5] of 200 ± 78 pg/g tissue and an IL-12p70 level [1, 5] of 270 ± 140 pg/g tissue. The IL-15 level [1, 5] was 960 ± 370 pg/g tissue, the IL-17 level [1, 5] was 55 ± 16 pg/g tissue and the KC level [1, 5] was 190 ± 20 pg/g tissue. It also gave an LIF level [1, 5] of 7.1 ± 4 pg/g tissue, an LIX level [1, 5] of 290 ± 240 pg/g tissue and a M-CSF level [1, 5] of 200 ± 70 pg/g tissue. The MIG level [1, 5] was 1200 ± 650 pg/g tissue, the RANTES level [1, 5] was 71 ± 61 pg/g tissue and the TNFa level [1, 5] was 77 ± 21 pg/g tissue. For the same molecule, the VEGF level [1, 5] was 8.2 ± 3.4 pg/g tissue, the “total bile acid in the feces, peptide-treated vs. control WD-fed mice” value ([2]; feces) was “two-fold higher” and the “total bile acid in the plasma, peptide-treated vs. control WD-fed mice” value ([2]; plasma) was “three-fold lower”. For the same molecule, the “levels of fatty acids containing 4-6 carbons, including butyrate” value ([3]; fecal samples, two-week treatment) was “increased levels”, the “levels of tryptophan and phenylalanine in the feces” value ([3]; feces, two-week course) was “higher levels” and the “overall gene expression from Bacteroidetes” value ([4]; feces, 2-week treatment) was “increased”. For the same molecule, the “overall gene expression from Firmicutes” value ([4]; feces, 2-week treatment) was “reduced”, the “acetoacetate-CoA transferase levels compared to vehicle” value ([4]; microbiota transcriptome) was “higher” and the “butyryl-CoA dehydrogenase levels compared to vehicle” value ([4]; microbiota transcriptome) was “lower”.
